Assay results taken from the NIST ThermoML archive (doi:10.1021/je050406x).
± gives the expanded uncertainty stated by the source.

Experiments:
[1] = Molar enthalpy of transition or fusion; conditions: Crystal; DSC
[2] = Crystal; DTA

Molar enthalpy of transition or fusion [1]: 15.7 ± 0.38 kJ/mol
Normal melting temperature [2]: 28.26 ± 0.5 °C
SMILES: O=C1COCCO1 [1,4-dioxan-2-one]
